The NIST ThermoML archive (doi:10.1016/j.jct.2016.04.023)
Numbers after ± are expanded uncertainties.

Assay: Boiling temperature at pressure P
Details: Liquid, DSC

SMILES	Boiling temperature at pressure P (3.47 kPa)	also measured
CCCC(=O)OCC(COC(=O)CCC)OC(=O)CCC [1,2,3-propanetriyl tributanoate]	201.40 ± 1.9 °C	–
CCCCCCCCCCCCCCCCCCO [1-octadecanol]	225.89 ± 1.8 °C	–
CCCCCCCC(=O)OCC(O)CO (stereo unspecified) [2,3-dihydroxypropyl octanoate]	211.90 ± 1.9 °C	–
CCCCCCCCCCCCCCCC [hexadecane]	170.91 ± 2.5 °C	Boiling temperature at pressure P (10.37 kPa): 200.90 ± 1.7 °C; Boiling temperature at pressure P (15.17 kPa): 213.66 ± 1.6 °C; Boiling temperature at pressure P (18.66 kPa): 220.5 ± 2.6 °C; Boiling temperature at pressure P (22.39 kPa): 223.27 ± 2.3 °C

More lines, main results first:

Boiling temperature at pressure P (3.47 kPa)	SMILES	also measured
186.13 ± 1.7 °C	OCC(O)CO [glycerol]	–
196.81 ± 1.9 °C	CCCCCCCCCCCCCCCCCC [octadecane]	–
144.04 ± 1.9 °C	CCCCCCCC(=O)O [octanoic acid]	–
